# Measured values: publication PMC11137182, “Selective and brain-penetrant ACSS2 inhibitors target breast cancer brain metastatic cells” (Frontiers in Pharmacology, 2024)
# Where two headings read alike, the source gives them in different places.
# How the values were obtained:
# [1] = test system: MDA-MB-231BR cells; assay: Clonogenic survival assay; format: cell-based; details: 100 μM, 48 h treatment, 10 days growth
# Protocol: Triple-negative brain trophic cells MDA-MB-231BR and 4T1BR cells were a kind gift from Dr. Patricia Steeg (Center for Cancer Research, National Cancer Institute) ([Achrol et al., 2019]). Both cell lines were cultured in DMEM supplemented with 10% fetal bovine serum (FBS), 5% 10,000 Units/mL Penicillin-10,000 μg/mL Streptomycin, and 5% 200 mM L-Glutamine. For crystal violet staining, 5 × 10^4 cells were plated and subjected to the treatments as described in the individual figures and then stained with 0.5% crystal violet prepared in a 1:1 methanol-water solution followed by PBS washes. ACSS2 inhibitors were dissolved in 100% ultra-pure DMSO.
# To assess clonogenic survival, 1 × 10^5 cells were seeded into a 6-well plate until 70%–80% confluency and treated for 48 h with analogs at 100 uM (unless otherwise stated in the figure legend). After 48 h, cells were trypsinized and counted using hemocytomer, and 1 × 10^4 cells per treatment were plated into a 6-well plate with fresh culture medium and allowed to grow for 10 days. Following 10-day incubation, cells were washed twice with PBS, stained with crystal violet for 30 min, and washed with dH2O twice. Colonies >50mircons were counted. For crystal violet staining, 0.5% crystal violet was prepared in a 1:1 methanol-water solution.
# [2] = target: T1, ACSS2 (Homo sapiens, UniProt Q9NR19); assay: SPR binding to immobilized ACSS2; details: mean
# T1 construct: His-tag (N); His-tag (C); made in house; host or cells: E. coli BL21 (DE3) RIL
# Protocol: Overproduction of ACSS2 was achieved using a prokaryotic expression system. […] The bacterial expressions were then spun down, the supernatant discarded, and the pellets resuspended in 50 mM Tris HCl pH8.0, 800 mM NaCl, 5 mM Imidazole, 2 mM MgCl2, 10% Glycerol, 0.1 mg/mL Lysozyme, 1 mM Protease inhibitor (PMSF). After the cells were lysed via sonication, the sample was subjected to ultracentrifugation, and the clarified lysate was applied to a 5 mL Talon cobalt resin affinity column (Clonetech Laboratories, Mountain View, CA). The bound protein was washed with 300 mL wash buffer 1 (20 mM Tris HCl pH8.0, 800 mM NaCl, 15 mM Imidazole, 5 mM MgCl2, 10% Glycerol, 0.1% CHAPS) and 300 mL wash buffer 2 (20 mM Tris HCl pH8.0, 400 mM NaCl, 18 mM Imidazole, 5 mM MgCl2, 10% Glycerol) prior elution with 20 mM Tris HCl pH8.0, 400 mM NaCl, 300 mM Imidazole, 2 mM MgCl2, 5% Glycerol. Eluted ACSS2 was then dialyzed overnight into 20 mM Tris HCl pH8.0, 150 mM NaCl, 5% Glycerol, concentrated and applied to a Superdex S-200 (16/600) using the same buffer without Glycerol. ACSS2 fractions were pooled, concentrated to 3 mg/mL, aliquoted, and stored at −80°C. hACSS1 was obtained from a commercial vendor (www.mybiosource.com).
# All binding assays were performed on a ProteOn XPR36 SPR Protein Interaction Array System (Bio-Rad Laboratories, Hercules, CA, United States). The instrument temperature was set at 25°C for all kinetic analyses. ProteOn GLH sensor chips were preconditioned with two short pulses each (10 s) of 50 mM NaOH, 100 mM HCl, and 0.5% sodium […]. Then, the system was equilibrated with running buffer (1x PBS pH 7.4, 3% DMSO, and 0.005% polysorbate 20). The surface of a GLH sensor chip was activated with a 1:100 dilution of a 1:1 mixture of 1-ethyl-3-(3-dimethylaminopropyl) carbodiimide hydrochloride (0.2 M) and sulfo-N-hydroxysuccinimide (0.05 M). Immediately after chip activation, the human ACSS2 or hACSS1 proteins were prepared at a concentration of 10 μg/mL in 10 mM sodium acetate, pH 5.5, and injected across ligand flow channels for 5 min at a flow rate of 30 μL/min. Then, after unreacted protein had been washed out, excess active ester groups on the sensor surface were capped by a 5 min injection of 1M ethanolamine HCl (pH 8.0) at a flow rate of 5 μL/min. A reference surface was similarly created by immobilizing a nonspecific protein (IgG b12 anti-HIV-1 gp120; was obtained through the NIH AIDS Reagent Program, Division of AIDS, NIAID, NIH: Anti-HIV-1 gp120 Monoclonal (IgG1 b12) from Dr. Dennis Burton and Carlos Barbas) and was used as a background to correct nonspecific binding. […] Data were analyzed using the ProteOn Manager Software version 3.0 (Bio-Rad). The responses from the reference flow cell were subtracted to account for the nonspecific binding and injection artifacts. Experimental data were fitted to a simple 1:1 binding model. Experiments were performed in triplicate to detect kinetic and equilibrium dissociation constants (KD).
# T1 sequence (Q9NR19 whole entry): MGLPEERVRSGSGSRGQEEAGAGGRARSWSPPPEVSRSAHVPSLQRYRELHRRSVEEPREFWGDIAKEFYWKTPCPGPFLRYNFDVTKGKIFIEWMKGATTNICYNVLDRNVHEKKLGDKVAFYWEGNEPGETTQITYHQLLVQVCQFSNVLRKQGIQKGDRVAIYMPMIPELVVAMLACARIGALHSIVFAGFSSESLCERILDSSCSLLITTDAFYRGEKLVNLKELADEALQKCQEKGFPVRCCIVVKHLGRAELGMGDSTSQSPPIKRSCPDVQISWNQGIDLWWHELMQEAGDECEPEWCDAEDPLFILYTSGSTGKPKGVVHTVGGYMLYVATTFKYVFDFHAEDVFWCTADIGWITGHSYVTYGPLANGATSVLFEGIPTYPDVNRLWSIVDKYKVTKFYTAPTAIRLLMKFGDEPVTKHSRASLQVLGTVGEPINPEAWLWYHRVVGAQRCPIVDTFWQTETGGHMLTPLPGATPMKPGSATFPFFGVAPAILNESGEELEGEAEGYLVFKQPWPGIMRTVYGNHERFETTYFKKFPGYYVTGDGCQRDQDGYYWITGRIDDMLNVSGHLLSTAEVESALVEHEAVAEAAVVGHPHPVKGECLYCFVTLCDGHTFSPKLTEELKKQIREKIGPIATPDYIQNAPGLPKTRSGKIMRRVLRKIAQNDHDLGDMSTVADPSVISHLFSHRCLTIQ
smiles,measurement,setting,value
N[C@H](C(=O)N1CCCC(c2ccccc2)(c2ccccc2)C1)C1CC1 [AD-8007],clonogenic survival,[1],significant reduction in clonogenic survival
same,koff,"[2]; 1:1 binding model, n=3, read-out: koff",0.547 s⁻¹
same,kon,"[2]; 1:1 binding model, n=3, read-out: kon",4790 M⁻¹ s⁻¹
same,Kd,"[2]; 25°C, Langmuir isotherm equilibrium fit, n=3, read-out: KD equilibrium",117 µM
same,Kd,"[2]; global fit, n=3, read-out: KD kinetic/global",149 µM
